Data on 80 compounds can be found in PubChem BioAssay AID720512 (Broad Institute, 2013).

Calls of active or inactive are those of the source. How the calls were made is not given here. Where only a bound is given, the exact number is not on record here.

One assay has as its target Toxin B (TcdB) glycohydrolase, Clostridioides difficile 630. The experiment in a line: TcdB glycohydrolase inhibitors, dose response, biochemical, cherry-pick, plate reader (AID 720512). Conditions: recombinant TcdB glycohydrolase activity.
For `O=c1[nH]c(/C=C\c2ccc(O)c(Cl)c2)nc(O)c1[N+](=O)[O-]`, the AC50 was > 39 µM (inactive). With `COc1ccc(C(=O)/C=C/c2ccc(O)cc2)c2c1CC(O)C(C)(C)O2` (stereo not given), the AC50 is > 39 µM (inactive). The same measure, in the same setting: next, `Cc1ccc2nc(-c3ccc4c(c3)OCCO4)cn2c1`: > 39 µM (inactive); `O=C(CCn1c(=O)oc2cc(Cl)ccc21)Nc1ccc(O)cc1`: > 20 µM (inactive). On the same count and under the same terms, to `S=C(NCCN1CCOCC1)Nc1ccc(Nc2ccccc2)cc1` belongs > 39 µM (inactive); to `Nc1ccc(OCCCc2c(N)nc(N)nc2N)cc1`, > 39 µM (inactive). Still for that read-out and setting: next, `COCC(=O)N1CC[C@@H]2[C@H]1c1cc(-c3ccc(OC)cc3)ccc1N(C)[C@H]2CO`: > 39 µM (inactive).

With `CC(=O)N/C(=C\c1ccccc1)C(=O)Nc1ccc(O)cc1`, the AC50 was > 39 µM (inactive). The same measure, in the same setting: to `COC(=O)/C=C/C(=O)Nc1ccc(O)c(Cl)c1` belongs 20.9 µM.

Staying with this assay, now noted: recombinant TcdB glycohydrolase activity, at 10 µM (top of the series).
For the compound `O=C1c2c(O)ccc(O)c2C(=O)c2c(NCCNCCO)ccc(NCCNCCO)c21`, the “activity change, negative = inhibition” value is “inactive”.

The assay is the same for the next values; noted with them: recombinant TcdB glycohydrolase activity, at 19.5 µM (top of the series).
As to `COc1ccc(-c2ccc3c(c2)[C@@H]2[C@@H](CCN2C(=O)C2CC2)[C@H](CO)N3C)cc1`, the “activity change, negative = inhibition” value is “inactive”. Same read-out and setting: to `CNC(=O)C[C@@H]1CC[C@H]2[C@H](COc3ccc(NS(=O)(=O)c4ccccc4C)cc3C(=O)N2C)O1` belongs “inactive”. Same read-out and setting: to `Nc1ccc2c(c1)Nc1ccccc1CC2` belongs “inactive”; to `Cc1cccn2c(CN(C)C3CCCc4ccccc43)c(C(=O)N3CCOCC3)nc12` (stereo not given), “inactive”; to `CSc1nc2c(c(=O)[nH]c(=O)n2C)n1Cc1ccccc1`, “inactive”. On to `CCN1CCN(S(=O)(=O)c2ccc3[nH]c(=O)oc3c2)CC1`, for which the “activity change, negative = inhibition” value is “inactive”. On the same count and under the same terms, to `O=C(Nc1ccccc1F)N(Cc1ccc(F)cc1)Cc1nc2ccccc2c(=O)[nH]1` belongs “inactive”; to `Cc1ccc(CN2C(=O)CN=C(c3ccccc3)c3ccccc32)cc1`, “inactive”; to `COc1ccc2cc3c(nc2c1)OCC3`, “inactive”.

For the compound `CC(OC(=O)C1=COCCO1)C(=O)c1ccc(Br)cc1` (stereo not given), the “activity change, negative = inhibition” value was “inactive”.

For `C[C@H](CO)N1C[C@H](C)[C@@H](CN(C)C(=O)Nc2ccc(C(F)(F)F)cc2)Oc2c(NS(=O)(=O)c3cn(C)cn3)cccc2C1=O`, the “activity change, negative = inhibition” value was “inactive”. `CC(OC(=O)[C@@H](NC(=O)OCc1ccccc1)C(C)C)C(=O)Nc1ccc(N2CCOCC2)cc1` (stereo not given in full): the “activity change, negative = inhibition” value is “inactive”.

Regarding `COc1cc2oc3ccc(C#Cc4ccccn4)cc3c(=O)c2cc1OC`, the “activity change, negative = inhibition” value was “inactive”.

As for `COc1ccc(-c2ccc3c(c2)[C@@H]2[C@@H](CCN2C(=O)CN2CCOCC2)[C@H](CO)N3)cc1`, the “activity change, negative = inhibition” value was “inactive”.

Turning to `Nc1nnn(CC(=O)N/N=C/c2ccc(O)cc2)n1`, the “activity change, negative = inhibition” value is “inactive”.

As to `C/C(=N\Nc1ccc([N+](=O)[O-])cc1)c1cccc(N)c1`, the “activity change, negative = inhibition” value is “inactive”. Still for that read-out and setting: to `COc1ccccc1CNC(=O)CN(c1ccc(C)cc1)S(=O)(=O)c1c(C)n[nH]c1C` belongs “inactive”; to `O=C(NCCc1ccc(Cl)cc1)C1CCN(S(=O)(=O)c2ccc(Br)s2)CC1`, “inactive”. Same read-out and setting: next, `CC(=O)C1=CCC(c2ccccc2)N(S(=O)(=O)c2ccc(C)cc2)C1` (stereo not given): “inactive”; `CCOc1ccc(C(CC(=O)O)NC(=O)C23CC4CC(CC(C4)C2)C3)cc1OC` (stereo not given): “inactive”. Same read-out and setting: to `COC(=O)Cc1ccc(NC(=S)NCc2ccc(OC)cc2)cc1` belongs “inactive”.

As for `Cc1ccn2c(Cc3ccccc3)c(-c3ccc(F)cc3)nc2c1`, the “activity change, negative = inhibition” value was “inactive”. On the same count and under the same terms, next, `COc1ccc(C2=NS(=O)(=O)N(C)C(C(=O)NCc3ccc4c(c3)OCO4)=C2)cc1`: “inactive”. Same read-out and setting: to `S=c1[nH]nc(NC2CCCCC2)s1` belongs “inactive”; to `O=C(N/N=C/c1cccc([N+](=O)[O-])c1)c1ccc(Br)cc1`, “inactive”. Consider `O=C(NNc1nc2c(F)cccc2s1)C1COc2ccccc2O1` (stereo not given), for which the “activity change, negative = inhibition” value was “inactive”. Still for that read-out and setting: next, `O=C(c1ccc2c(c1)N(Cc1ccccc1F)C(=O)c1ccccc1S2)N1CCOCC1`: “inactive”; `CC(C)CN1CCN(CC#Cc2ccccc2)CC1CCO` (stereo not given): “inactive”; `O=C(c1ccc([N+](=O)[O-])cc1)N1CCN(c2cccc3[nH]ccc23)CC1`: “inactive”. On the same count and under the same terms, next, `Cc1cccc(-n2nnc(C(=O)NCc3ccccc3Cl)c2N)c1`: “inactive”; `Cc1ccc(S(=O)(=O)Oc2cccc(/C=N/n3cnnc3)c2)cc1`: “inactive”; `O=C(O)c1ccc2c(c1)N(Cc1cccc(F)c1)C(=O)CS2`: “inactive”.

Turning to `O=C(CN1C(=O)CCC1=O)NNc1ccc2ccccc2c1`, the “activity change, negative = inhibition” value is “inactive”.

Take `COc1cc(/C=C/C(=O)OCC(=O)NCc2ccco2)ccc1O`: the “activity change, negative = inhibition” value was “inactive”.

`CN(C(=O)COC(=O)CNC(=O)c1ccccc1Cl)c1ccccc1`: the “activity change, negative = inhibition” value is “inactive”. Regarding `CC1=C(C(=O)OCC2CCCO2)C(c2coc3ccccc3c2=O)C2=C(CCCC2=O)N1` (stereo not given), the “activity change, negative = inhibition” value was “inactive”. Same read-out and setting: next, `C=C1CCN(Cc2ccccc2)S(=O)(=O)c2ccccc21`: “inactive”. The same measure, in the same setting: next, `Cc1cc(/C=C(\C#N)C(=O)N2CCCCC2)cc(C)c1O`: “inactive”; `O=C(C[C@@H]1C[C@@H]2c3cc(NC(=O)c4ccc5c(c4)OCO5)ccc3O[C@@H]2[C@@H](CO)O1)NCc1cccc(F)c1`: “inactive”; `CCOC(=O)c1ccc[n+](CC(=O)c2ccc(NC(=O)c3ccccc3)cc2)c1`: “inactive”. On the same count and under the same terms, next, `Cc1ccc(-c2nc3ccc([N+](=O)[O-])cc3[nH]2)cc1`: “inactive”. As for `COc1ccc(Cl)cc1NC(=O)CSc1nnc(-c2ccco2)o1`, the “activity change, negative = inhibition” value was “inactive”. On the same count and under the same terms, to `COc1ccc(NC(c2ccccc2)c2ccncc2)cc1` (stereo not given) belongs “inactive”. `O=C(Nc1ccc(N2CCOCC2)c(Cl)c1)c1ccc2c(c1)OCCO2`: the “activity change, negative = inhibition” value is “inactive”. As for `O=C(CNS(=O)(=O)c1ccccc1)N/N=C/c1ccc(O)cc1`, the “activity change, negative = inhibition” value was “inactive”.

As to `Oc1ccccc1-c1cnc2cccnn12`, the “activity change, negative = inhibition” value was “inactive”. The same measure, in the same setting: next, `O=C(CCC(=O)N1CCSc2ccccc21)Nc1cccc(F)c1`: “inactive”; `Cc1noc(/C=C/c2ccccc2F)c1S(=O)(=O)N1CCC(C(=O)N2CCN(C)CC2)CC1`: “inactive”.

As to `CNC(=O)C[C@H]1CC[C@@H]2[C@H](COc3ccc(NC(=O)c4ccc(OC)cc4)cc3C(=O)N2C)O1`, the “activity change, negative = inhibition” value is “inactive”. In the case of `C[C@@H]1CN([C@H](C)CO)C(=O)c2cccc(N(C)C)c2O[C@@H]1CN(C)C(=O)Nc1ccc(C(F)(F)F)cc1`, the “activity change, negative = inhibition” value was “inactive”. The same measure, in the same setting: next, `COC(=O)c1ccc(C23CC4(C2)[C@H](CN(Cc2ccc(C(F)(F)F)cc2)[C@@H]4c2ccccc2)C3c2ccc(Cl)nc2)cc1` (stereo not given in full): “inactive”; `Cc1ccc(NNC(=O)C2CCC2)cc1C`: “inactive”. Same read-out and setting: to `CCC(C)NC(=O)CSc1nc2cc(S(=O)(=O)N3CCOCC3)ccc2n1CC` (stereo not given) belongs “inactive”; to `COc1ccc(C(=O)OCC(=O)Nc2ccc3[nH]c(=O)[nH]c3c2)c(OC)c1OC`, “inactive”; to `CCN(CC)C(=O)C1CCN(S(=O)(=O)c2c(C)noc2/C=C/c2cccc(C)c2)CC1`, “inactive”. In the case of `Cc1cc(O)ccc1N=Cc1c(C(F)(F)F)[nH][nH]c1=O`, the “activity change, negative = inhibition” value is “inactive”. Still for that read-out and setting: next, `O=C(CSc1nc2cc(Cl)ccc2s1)c1ccco1`: “inactive”.

Take `COc1cccc(Oc2ccc3nnc(C(F)(F)F)n3n2)c1`: the “activity change, negative = inhibition” value is “inactive”.

On to `COc1cc(/C=C/C(=O)OCC(=O)c2ccc[nH]2)ccc1O`, for which the “activity change, negative = inhibition” value was “inactive”.

Turning to `C=CCN=c1scc(C)n1/N=C/c1ccc(O)c(O)c1`, the “activity change, negative = inhibition” value is “inactive”. Regarding `COCC(=O)N1CC[C@@H]2[C@H]1c1cc(-c3ccccc3)ccc1N(C)[C@H]2CO`, the “activity change, negative = inhibition” value was “inactive”. Same read-out and setting: next, `Clc1ccc(/C=C/c2ncc[nH]2)c(Cl)c1`: “inactive”; `CCN(CC)S(=O)(=O)c1cc(C(=O)Nc2cccnc2Cl)ccc1Cl`: “inactive”. Still for that read-out and setting: to `COc1cc2[nH]c(=S)n(Cc3cccs3)c(=O)c2cc1OC` belongs “inactive”; to `Cc1ccc(C)c2sc(NC(=O)c3ccc(N4C(=O)CCC4=O)cc3)nc12`, “inactive”; to `COc1ccc(C=C2CCC3C(=O)CCCC3(C)C2=O)cc1` (stereo not given), “inactive”.

Regarding `NC1=NC[C@H](Cc2ccc(O)cc2)N1CCc1cc(C(F)(F)F)cc(C(F)(F)F)c1`, the “activity change, negative = inhibition” value was “inactive”. On the same count and under the same terms, next, `Cn1c(-c2ccc(F)c(F)c2)cc2onc(-c3ccccc3)c2c1=O`: “inactive”. Same read-out and setting: to `Nc1ccc(C(=O)c2ccc3c(c2)OCCO3)cc1N` belongs “inactive”.

The same assay, now with this note: recombinant TcdB glycohydrolase activity, at 21 µM (top of the series).
On to `CCNC(=O)C[C@@H]1CC[C@H]2[C@@H](COc3ccc(NC(C)=O)cc3C(=O)N2C)O1`, for which the “activity change, negative = inhibition” value was “inactive”.

In general, AC50 refers to the concentration at which the activity in the assay is half-maximal.
